Measurements as given in PubChem BioAssay AID2060487 (Molecular Pharmacology Branch, DTP, NCI, 2025).
“And” between values parts separate entries of the source, which are not always exact repeats. Equal values may be shown once.

Test system: 997537-175-T-J1-PDC complex spheroid viability
Experiment: Anticancer human tumor 997537-175-T-J1-PDC patient-derived colon adenocarcinoma cell line growth inhibition [GQUAD]
Details: for viability, T/C: stronger effect = lower value
From the text: DNA G-quadruplex Stabilizer Agents in Combinations in Complex Spheroids
A high-throughput screen of multi-cell type tumor spheroids was designed to identify active combinations of DNA G-quadruplex stabilizer agents and targeted small molecules. Complex spheroids include a stromal component modeled by human endothelial cells (HUVEC) and fibroblasts modeled by human mesenchymal stem cells (MSCs). The concentration ranges selected for each drug and investigational agent were based upon clinically achievable concentrations if the clinical Cmax of the agent was known.
Compounds. The drugs and investigational agents: pidnarulex (CX-5461; NSC782164), APTO-253 (NSC789042), BRACO-19 (NSC847499), peposertib (NSC802822), ceralasertib (NSC780249), elimusertib (NSC800525), camonsertib (NSC841442), AZD-1390 (NSC803789), olaparib (NSC753686), talazoparib (NSC767125), ART-558 (NSC835418), sotorasib (NSC818433), MRTX-1133 (NSC836407), SN-38 (NSC673596), topotecan (NSC609699), etoposide (NSC141540), doxorubicin (NSC123127), gemcitabine (NSC613327), 5-fluorouracil (NSC19893), paclitaxel (NSC125973), vemurafenib (NSC761431), panobinostat (NSC761190), R-306465 (JNJ-16241199; NSC773264), adavosertib (NSC754352), TP-3654 (NSC805149), carboplatin (NSC241240), KSQ-4279 (NSC840948), and staurosporine (NSC755774) were obtained from the National Cancer Institute (NCI) Developmental Therapeutics Program Chemical Repository (34). The FDA-approved anticancer drug set is available from the NCI Developmental Therapeutics Program. […] The stock solutions were prepared in dimethyl sulfoxide (DMSO, Sigma-Aldrich, St. Louis, MO, cat. D2650) at 800-fold the tested concentration and stored at -70 degrees C prior to their use. All drugs and investigational agents were tested over a range starting from a high concentration at or near the clinical Cmax and decreasing in half-log increments. If the clinical Cmax for an agent had not been determined, the highest concentration tested was 10 microM.
2.3 Cell Culture. All cells were maintained in an incubator at 37 degrees C and 5% CO2 with 95% humidity. The PDC lines were cultured according to standard operating procedures established by the NCI PDMR. All PDCs were thawed and cultured in Matrigel-coated flasks prepared with a working solution of 1X Ham's F-12 nutrient mix, without supplementation (Invitrogen, cat. 11765054), 100 U/mL penicillin-streptomycin (Invitrogen, cat. 15140122), and 2.5% Matrigel (Corning Inc., cat. 354248) for the first three passages. The 857933-349-R-J2-PDC line was cultured in 6C/Colon 1B media, which includes advanced DMEM/F-12 (Thermo Fisher Scientific, cat. 12634028), 10 mM HEPES (Thermo Fisher Scientific, cat. 15630080), 1X GlutaMAX supplement (Thermo Fisher Scientific, cat. 35050061), 0.1 mg/mL primocin (InvivoGen, cat. ant-pm-2), 10% defined fetal bovine serum, heat inactivated (HyClone Laboratories Inc., cat. SH30070.03HI), 50% L-WRN conditioned media (ATCC, cat. CRL-3276), 1.25 mM N-Acetyl-L-cysteine (Sigma-Aldrich, cat. A9165), 10 mM nicotinamide (Sigma-Aldrich, cat. N0636), 1X B-27 supplement (Thermo Fisher Scientific, cat. 17504044), 1X N-2 supplement (Thermo Fisher Scientific, cat. 17502048), 10 microM Y-27632 dihydrochloride (Tocris Bioscience, cat. 1254), and 50 ng/mL human EGF recombinant protein (Thermo Fisher Scientific, cat. PHG0311). The 485176-168-R4-J1-PDC line was cultured in Panc media, which includes all 6C/Colon 1B media components plus 100 ng/mL human FGF-10 (Thermo Fisher Scientific, cat. 100-26), 500 nM SB-431542 (Selleckchem, cat. S1067), and gastrin (Tocris, cat. 3006).
[…]
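Note: spheroids exposed to the agents for 7 days.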
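Throughout, for viability, T/C: 100% = DMSO vehicle control viability.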

SMILES | IC50 (curve of compound) | IC50 (compound alone, run of 04/22/2024) [nM] | viability, T/C (compound 0.0316 µM) | viability, T/C (compound 0.1 µM) | viability, T/C (compound 0.316 µM) | viability, T/C (compound 1 µM) | viability, T/C (compound 3.16 µM) | viability, T/C (compound 10 µM) | viability, T/C (compound 0.000999 µM) | viability, T/C (compound 0.00316 µM) | viability, T/C (compound 0.00999 µM) | viability, T/C (compound 0.0999 µM)
C#Cc1c(F)ccc2cc(O)cc(-c3ncc4c(N5CC6CCC(C5)N6)nc(OCC56CCCN5CC(F)C6)nc4c3F)c12 (stereo not given) | > 10000 nM and 1940 nM |  | 89% and 91.8% and 98.1% | 89.1% and 92.2% and 103% | 104% and 94.8% and 102% | 99.4% and 67.4% and 107% | 88.9% and 38.7% and 91.8% | 106% and 35.1% and 92.4% |  |  |  | 
C=CC(=O)N1CCN(c2nc(=O)n(-c3c(C)ccnc3C(C)C)c3nc(-c4c(O)cccc4F)c(F)cc23)C(C)C1 (stereo not given) | > 10000 nM |  | 72.9% and 96.6% and 86.9% | 72.7% and 83.5% and 95.8% | 86.5% and 87.9% and 93.8% | 92.2% and 77.4% and 73% | 95.7% and 79.1% and 71.7% | 94.6% and 94.1% and 90% |  |  |  | 
CC(=O)O[C@H]1C(=O)[C@@]2(C)[C@H]([C@H](OC(=O)c3ccccc3)[C@]3(O)C[C@H](OC(=O)[C@H](O)[C@@H](NC(=O)c4ccccc4)c4ccccc4)C(C)=C1C3(C)C)[C@]1(OC(C)=O)CO[C@@H]1C[C@@H]2O |  |  | 104% and 77.3% and 50.1% | 92.5% and 40.4% and 45.4% | 91.8% and 22.7% and 36.3% | 74.7% and 34.4% and 39.1% | 53.2% and 23.9% and 28.3% | 0.36% and 20.5% and 22% |  |  |  | 
CC(C)(O)C1CCC(Nc2ccc3ncc(-c4cccc(C(F)(F)F)c4)n3n2)CC1 (stereo not given) | > 10000 nM and 1460 nM and 2030 nM |  | 106% and 96.5% and 115% | 111% and 78.3% and 65.2% | 114% and 96.7% and 109% | 101% and 61.5% and 68.3% | 98.6% and 24.1% and 40.3% | 96.8% and 28.7% and 36.9% |  |  |  | 
CC1COCCN1c1cc(-c2ccnn2C)c2ccnc(-c3ccn[nH]3)c2n1 (stereo not given) | 1750 nM and 846 nM and 219 nM |  | 80.4% and 95.8% and 90.8% | 67.5% and 75.7% and 62.5% | 46% and 65.2% and 33.9% | 61% and 40% and 50% | 58% and 48.9% and 43.1% | 36.4% and 43.5% and 49.4% |  |  |  | 
CC1COCCN1c1cc(C2(O)CC3CCC(C2)O3)c2cnn(-c3ccn[nH]3)c2n1 (stereo not given) | 345 nM and 701 nM and 282 nM |  | 86.8% and 86.6% and 96.4% | 57.4% and 66.7% (2×) | 50.3% and 53.8% and 37.7% | 51.1% and 54.5% and 70.1% | 49.2% and 35.5% and 36.5% | 44.9% and 33.9% and 48.4% |  |  |  | 
CC1COCCN1c1cc(C2(S(C)(=N)=O)CC2)nc(-c2ccnc3[nH]ccc23)n1 (stereo not given) | 7160 nM and 7090 nM and 5600 nM |  | 98.9% and 93.7% and 101% | 81.9% and 86.5% and 95.8% | 83.6% and 94.9% and 77% | 83.5% and 68.5% and 90.1% | 56.5% and 65.7% and 59.5% | 46.4% and 44.1% and 36.8% |  |  |  | 
CC[C@@]1(O)C(=O)OCc2c1cc1n(c2=O)Cc2cc3c(CN(C)C)c(O)ccc3nc2-1 | 276 nM and > 316 nM |  | 80.1% and 87.1% and 83.8% |  | 44.4% and 62.8% and 50.7% |  |  |  | 111% (2×) and 97.1% | 69.8% and 102% and 104% | 90.1% and 96.7% and 105% | 71.2% and 79.7% and 72.6%
CCc1c2c(nc3ccc(O)cc13)-c1cc3c(c(=O)n1C2)COC(=O)[C@]3(O)CC | 10.5 nM and 17.4 nM and 9.78 nM |  | 34.5% and 31.5% and 19.4% |  | 2.98% and 3.42% and 6.93% |  |  |  | 83.3% and 102% and 95.3% | 63.9% and 92% and 82.8% | 52.7% and 68.5% and 49% | 6.34% and 5.01% and 4.92%

The next lines start with results.

IC50 (curve of compound) | IC50 (compound alone, run of 04/22/2024) [nM] | SMILES | viability, T/C (compound 0.0316 µM) | viability, T/C (compound 0.1 µM) | viability, T/C (compound 0.316 µM) | viability, T/C (compound 1 µM) | viability, T/C (compound 3.16 µM) | viability, T/C (compound 10 µM) | viability, T/C (compound 0.000999 µM) | viability, T/C (compound 0.00316 µM) | viability, T/C (compound 0.00999 µM) | viability, T/C (compound 0.0999 µM)
5750 nM and 2730 nM and 3530 nM |  | C=CCn1c(=O)c2cnc(Nc3ccc(N4CCN(C)CC4)cc3)nc2n1-c1cccc(C(C)(C)O)n1 | 95.7% and 89.4% and 112% | 75.6% and 101% and 92.2% | 81.8% and 88.3% and 92.2% | 80.2% and 84.5% and 79.4% | 73.2% and 44.9% and 49.3% | 28.9% and 30.8% and 24.2% |  |  |  | 
> 10000 nM |  | CC(C)n1c(=O)n(C)c2cnc3cc(F)c(-c4ccc(OCCCN5CCCCC5)nc4)cc3c21 | 97.6% and 103% and 97% | 90.3% and 99.9% and 82.4% | 110% and 106% and 99.8% | 107% and 99.2% and 103% | 83.5% and 78.7% and 101% | 83.4% and 93.4% and 92% |  |  |  | 
2810 nM and 3150 nM and 1790 nM |  | CCCS(=O)(=O)Nc1ccc(F)c(C(=O)c2c[nH]c3ncc(-c4ccc(Cl)cc4)cc23)c1F | 98.4% and 98.6% and 86.2% | 99.3% and 95.1% and 77.8% | 97.4% and 68.8% and 65.1% | 89.6% and 71.8% and 53% | 45.4% and 56.1% and 52.3% | 34.9% and 24.1% and 25% |  |  |  | 
 | > 10000 | CN(C)c1ccc(Nc2c3ccc(NC(=O)CCN4CCCC4)cc3nc3cc(NC(=O)CCN4CCCC4)ccc23)cc1 |  |  | 97.1% [middle of 12 runs] |  |  |  |  |  |  | 
